Assay results as given in patent US9062041B2 (Bayer Intellectual Property GmbH, priority 2011, dated 2015).

How the values were obtained:
Assay type in all cases: cell-based
[1] = molecular target: EP2 subtype of the human PGE2 receptor (Homo sapiens, UniProt P43116); experiment: cAMP antagonism test on the human EP2 receptor (HTRF cAMP detection); settings: hEP2 receptor, read-out: Antagonism hEP2 IC50
Method in brief: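 Cells expressing human EP2 preincubated 20 min at RT with compound (0.8 nM–16.5 μM), then stimulated 60 min with PGE2 (3× solution 1.5 nM) in PBS-IBMX. After 20 min lysis, cAMP measured by competitive HTRF with cAMP-d2 and Eu cryptate anti-cAMP antibody (665/620 nm ratio).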

[2] = molecular target: EP4 subtype of the human PGE2 receptor (Homo sapiens, UniProt P35408); experiment: cAMP antagonism test on the human EP4 receptor (HTRF cAMP detection); settings: selectivity towards hEP4, IC50 measured by cAMP antagonism test
Method in brief: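 Cells expressing human EP4 preincubated 20 min at RT with compound (0.8 nM–16.5 μM), then stimulated with PGE2 (0.3 nM in 3× solution, with IBMX) 60 min at RT. After lysis, cAMP measured by HTRF competition (665/620 nm ratio); antagonism seen as rise in FRET signal.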

human PGD receptor = molecular target: T1, human PGD receptor (Homo sapiens, UniProt Q13258); experiment: cAMP antagonism test on the human prostaglandin D receptor (HTRF cAMP detection); settings: selectivity towards hDP, IC50 measured by cAMP antagonism test
T1 sequence (Q13258 1-359): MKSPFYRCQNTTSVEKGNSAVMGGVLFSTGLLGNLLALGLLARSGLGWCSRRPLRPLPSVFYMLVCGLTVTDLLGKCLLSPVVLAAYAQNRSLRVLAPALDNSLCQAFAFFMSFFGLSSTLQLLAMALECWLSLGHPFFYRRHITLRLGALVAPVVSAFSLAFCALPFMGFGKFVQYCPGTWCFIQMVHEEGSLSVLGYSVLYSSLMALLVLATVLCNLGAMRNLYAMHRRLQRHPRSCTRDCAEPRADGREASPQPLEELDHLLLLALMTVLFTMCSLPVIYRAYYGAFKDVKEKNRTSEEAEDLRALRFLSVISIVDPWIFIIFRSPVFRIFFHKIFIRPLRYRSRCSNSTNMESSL
Method in brief: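 Cells pre-mixed with cAMP-d2 were preincubated with compound (0.8 nM–16.5 μM) for 20 min at RT, then stimulated with 3× PGD2 solution (6 nM, in PBS-IBMX) for 30 min at RT. After lysis (20 min), HTRF read at 665/620 nm; antagonism seen as rise in FRET ratio.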

EP2 subtype of the human PGE2 receptor, sequence (P43116 whole entry): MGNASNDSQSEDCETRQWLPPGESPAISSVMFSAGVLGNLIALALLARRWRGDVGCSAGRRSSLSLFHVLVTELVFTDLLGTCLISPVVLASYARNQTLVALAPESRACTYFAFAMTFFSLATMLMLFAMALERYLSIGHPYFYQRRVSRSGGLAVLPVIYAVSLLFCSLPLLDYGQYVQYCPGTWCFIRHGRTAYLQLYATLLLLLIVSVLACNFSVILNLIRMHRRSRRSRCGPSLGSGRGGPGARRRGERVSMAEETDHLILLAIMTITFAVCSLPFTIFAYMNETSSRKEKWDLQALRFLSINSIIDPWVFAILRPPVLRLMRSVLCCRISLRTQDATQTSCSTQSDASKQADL
EP4 subtype of the human PGE2 receptor, sequence (P35408 whole entry): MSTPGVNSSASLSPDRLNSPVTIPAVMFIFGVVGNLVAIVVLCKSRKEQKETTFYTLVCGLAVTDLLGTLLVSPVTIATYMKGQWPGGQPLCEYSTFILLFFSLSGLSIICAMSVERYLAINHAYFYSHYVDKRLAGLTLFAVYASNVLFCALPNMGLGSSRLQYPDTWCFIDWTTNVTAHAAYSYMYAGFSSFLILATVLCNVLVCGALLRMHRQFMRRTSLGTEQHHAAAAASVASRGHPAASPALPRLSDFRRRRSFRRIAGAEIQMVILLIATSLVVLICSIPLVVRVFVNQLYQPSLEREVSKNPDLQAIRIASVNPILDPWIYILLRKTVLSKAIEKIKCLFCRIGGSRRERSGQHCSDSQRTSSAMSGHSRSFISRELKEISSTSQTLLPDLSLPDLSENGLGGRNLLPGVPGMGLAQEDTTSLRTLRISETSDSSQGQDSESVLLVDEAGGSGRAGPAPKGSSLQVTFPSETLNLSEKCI

| IC50 [1] [nM] | Selectivity hEP2/hEP4 [2] | Selectivity hEP2/hDP (human PGD receptor) | Compound |
| --- | --- | --- | --- |
| 98.2 | xxx (xxx > 100) | xxx (xxx > 100) | Cc1c(C(=O)NCC(F)(F)F)ccc2nn(CC3CN(C(=O)c4ccc(-c5ccc(F)cc5)cc4)C3)cc12 [Example 161, 2-({1-[(4′-fluorobiphenyl-4-yl)carbonyl]azetidin-3-yl}methyl)-4-methyl-N-(2,2,2-trifluoroethyl)-2H-indazol-5-carboxamide] |
| 84.1 | xxx (xxx > 100) | xxx (xxx > 100) | Cc1c(C(=O)NCC(F)(F)F)ccc2nn(CC3CCN(C(=O)c4ccc(Oc5ccc(Cl)cn5)cc4)CC3)cc12 [Example 311, 2-[(1-{4-[(5-chloropyridin-2-yl)oxy]benzoyl}piperidin-4-yl)methyl]-4-methyl-N-(2,2,2-trifluoroethyl)-2H-indazol-5-carboxamide] |
| 50.8 | xxx (xxx > 100) | xxx (xxx > 100) | Cc1c(C(=O)NCC2CCCCO2)ccc2nn(CC3CN(C(=O)c4ccc(Cl)cc4)C3)cc12 (racemic) [Example 144, (+/−)-2-{[1-(4-chlorobenzoyl)azetidin-3-yl]methyl}-4-methyl-N-(3,4,5,6-tetrahydro-2H-pyran-2-ylmethyl)-2H-indazol-5-carboxamide] |
| 55.2 | xxx (xxx > 100) | xxx (xxx > 100) | COCCNC(=O)c1ccc2nn(CC3CN(C(=O)c4ccc(OC(F)(F)F)cc4)C3)cc2c1OC [Example 254, 4-methoxy-N-(2-methoxyethyl)-2-({1-[4-(trifluoromethoxy)benzoyl]azetidin-3-yl}methyl)-2H-indazol-5-carboxamide] |
| 55.3 | xxx (xxx > 100) | xxx (xxx > 100) | COCCNC(=O)c1ccc2nn(CC3CCN(C(=O)c4ccc(C(C)(C)C#N)cc4)CC3)cc2c1C [Example 341, 2-({1-[4-(1-cyano-1-methylethyl)benzoyl]piperidin-4-yl}methyl)-N-(2-methoxy-ethyl)-4-methyl-2H-indazol-5-carboxamide] |
| 22.2 | xxx (xxx > 100) | xxx (xxx > 100) | Cc1c(C(=O)NCC(F)(F)F)ccc2nn(CC3CCN(C(=O)c4ccc(Oc5cccc(C(F)(F)F)c5)cc4)CC3)cc12 [Example 308, 4-methyl-N-(2,2,2-trifluoroethyl)-2-[(1-{4-[3-(trifluoromethyl)phenoxy]-benzoyl}piperidin-4-yl)methyl]-2H-indazol-5-carboxamide] |
| 14.9 | xxx (xxx > 100) | xxx (xxx > 100) | COCCNC(=O)c1ccc2nn(CC3CCN(C(=O)c4ccc(Oc5ccccn5)cc4)CC3)cc2c1C [Example 346, N-(2-methoxyethyl)-4-methyl-2-({1-[4-(2-pyridyloxy)benzoyl]piperidin-4-yl}-methyl)-2H-indazol-5-carboxamide] |
| 42.4 | xxx (xxx > 100) | xxx (xxx > 100) | COCCNC(=O)c1ccc2nn(CC3CCN(C(=O)c4ccc(Oc5cccnc5)cc4)CC3)cc2c1C [Example 343, N-(2-methoxyethyl)-4-methyl-2-({1-[4-(3-pyridyloxy)benzoyl]piperidin-4-yl}methyl)-2H-indazol-5-carboxamide] |
| 53.9 | xxx (xxx > 100) | xxx (xxx > 100) | Cc1cc2nn(CC3CCN(C(=O)c4ccc(S(F)(F)(F)(F)F)cc4)CC3)cc2cc1C(=O)NCCN1CCOCC1 [Example 77, 6-methyl-N-(2-morpholinoethyl)-2-({1-[4-(pentafluoro-λ^6-sulphanyl)benzoyl]piperidin-4-yl}methyl)-2H-indazol-5-carboxamide] |
| 13.1 | xxx (xxx > 100) | xxx (xxx > 100) | COCCNC(=O)c1ccc2nn(CC3CCN(C(=O)c4ccc(-c5cncc(Cl)c5)cc4)CC3)cc2c1C [Example 385, 2-({1-[4-(5-chloropyridin-3-yl)benzoyl]piperidin-4-yl}methyl)-N-(2-methoxy-ethyl)-4-methyl-2H-indazol-5-carboxamide] |
| 8.14 | xxx (xxx > 100) | xxx (xxx > 100) | COCCNC(=O)c1ccc2nn(CC3CCN(C(=O)c4ccc(S(F)(F)(F)(F)F)cc4)CC3)cc2c1C [Example 11, N-(2-methoxyethyl)-4-methyl-2-({1-[4-(pentafluoro-λ^6-sulphanyl)benzoyl]piperidin-4-yl}methyl)-2H-indazol-5-carboxamide] |
| 3.59 | xxx (xxx > 100) | xxx (xxx > 100) | COCCNC(=O)c1ccc2nn(CC3CCN(C(=O)c4ccc(-c5ccc(F)cc5C)cc4)CC3)cc2c1C [Example 376, 2-({1-[(4′-fluoro-2′-methylbiphenyl-4-yl)carbonyl]piperidin-4-yl}methyl)-N-(2-methoxyethyl)-4-methyl-2H-indazol-5-carboxamide] |
| 8.57 | xxx (xxx > 100) | xxx (xxx > 100) | COCCNC(=O)c1ccc2nn(CC3CCN(C(=O)c4ccc(Oc5ccccc5)cc4)CC3)cc2c1C [Example 19, N-(2-methoxyethyl)-4-methyl-2-{[1-(4-phenoxybenzoyl)-piperidin-4-yl]-methyl}-2H-indazol-5-carboxamide] |
| 12.6 | xxx (xxx > 100) | xxx (xxx > 100) | Cc1c(C(=O)NCC#N)ccc2nn(CC3CCN(C(=O)c4ccc(Oc5ccc(C(F)(F)F)cc5)cc4)CC3)cc12 [Example 247, N-(cyanomethyl)-4-methyl-2-[(1-{4-[4-(trifluoromethyl)phenoxy]benzoyl}piperidin-4-yl)methyl]-2H-indazol-5-carboxamide] |
| 8.67 | xxx (xxx > 100) | xxx (xxx > 100) | COCCNC(=O)c1ccc2nn(CC3CCN(C(=O)c4ccc(C(F)(F)F)cc4F)CC3)cc2c1C [Example 10, 2-({1-[2-fluoro-4-(trifluoromethyl)benzoyl]piperidin-4-yl}methyl)-N-(2-methoxy-ethyl)-4-methyl-2H-indazol-5-carboxamide] |
| 3.08 | xxx (xxx > 100) | xxx (xxx > 100) | COCCNC(=O)c1ccc2nn(CC3CCN(C(=O)c4ccc(OC5CCCC5)cc4)CC3)cc2c1C [Example 31, 2-({1-[4-(cyclo-pentyloxy)benzoyl]-piperidin-4-yl}-methyl)-N-(2-methoxyethyl)-4-methyl-2H-indazol-5-carboxamide] |
| 181 | xx (xx: 10-100) | xx (xx: 10-100) | COc1c(C(=O)NCC(F)(F)F)ccc2nn(CC3CCN(C(=O)c4ccc(Cl)cc4)CC3)cc12 [Example 263, 2-{[1-(4-chlorobenzoyl)piperidin-4-yl]methyl}-4-methoxy-N-(2,2,2-trifluoro-ethyl)-2H-indazol-5-carboxamide] |
| 14.7 | xxx (xxx > 100) | xxx (xxx > 100) | Cc1c(C(=O)NCC2CCCCO2)ccc2nn(CC3CCN(C(=O)c4ccc(Oc5ccc(C(F)(F)F)cc5)cc4)CC3)cc12 (racemic) [Example 248, (+/−)-4-methyl-N-(3,4,5,6-tetrahydro-2H-pyran-2-ylmethyl)-2-[(1-{4-[4-(trifluoromethyl)phenoxy]benzoyl}piperidin-4-yl)methyl]-2H-indazol-5-carboxamide] |
| 47.1 | xxx (xxx > 100) | xxx (xxx > 100) | Cc1cc2nn(CC3CN(C(=O)c4ccc(Cl)cc4)C3)cc2cc1C(=O)NCC1CCCCO1 (racemic) [Example 191, (+/−)-2-{[1-(4-chlorobenzoyl)azetidin-3-yl]methyl}-6-methyl-N-(3,4,5,6-tetrahydro-2H-pyran-2-ylmethyl)-2H-indazol-5-carboxamide] |
